# From ChEMBL document CHEMBL1150504, “Pharmacological evaluation of combined PGI2 agonists/thromboxane synthase inhibitors. I” (Bioorg Med Chem Lett, 1995)
# Target: T1, Thromboxane-A synthase (Homo sapiens, UniProt P24557)
# T1 sequence (P24557 whole entry): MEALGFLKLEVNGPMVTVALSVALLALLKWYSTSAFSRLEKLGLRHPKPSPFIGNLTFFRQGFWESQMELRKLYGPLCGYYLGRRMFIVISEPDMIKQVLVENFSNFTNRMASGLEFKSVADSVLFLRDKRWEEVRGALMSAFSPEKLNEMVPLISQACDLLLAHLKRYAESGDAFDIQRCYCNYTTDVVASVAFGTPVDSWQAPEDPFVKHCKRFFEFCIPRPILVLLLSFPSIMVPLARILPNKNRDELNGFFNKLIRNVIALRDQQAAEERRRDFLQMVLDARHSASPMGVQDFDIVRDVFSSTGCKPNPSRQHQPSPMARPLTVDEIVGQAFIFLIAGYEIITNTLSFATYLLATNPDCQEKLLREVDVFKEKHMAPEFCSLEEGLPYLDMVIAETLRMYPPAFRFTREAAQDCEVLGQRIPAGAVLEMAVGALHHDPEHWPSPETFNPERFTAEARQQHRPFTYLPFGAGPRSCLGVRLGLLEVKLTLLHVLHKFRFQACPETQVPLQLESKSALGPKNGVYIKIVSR
# Assay: Inhibitory activity against Thromboxane A2 synthase in human platelet microsome; Inactive; call rule not given here
row,SMILES,IC50
1,C/C(CC1CCc2c(cccc2OCC(=O)O)C1)=N\OC(c1ccccc1)c1ccccc1 (stereo not drawn),Not Active
2,O=C(O)COc1cccc2c1CCCC2CCON=C(c1ccccc1)c1ccccc1 (stereo not drawn),Not Active

# Species: Homo sapiens
# Assay: PGI-2 agonistic activity by measuring inhibition of 4 uM ADP-induced human platelet aggregation
# Assay type: functional
row,SMILES,IC50 [nM]
1,C/C(CC1CCc2c(cccc2OCC(=O)O)C1)=N\OC(c1ccccc1)c1ccccc1 (stereo not drawn),230
2,O=C(O)COc1cccc2c1CCCC2CCC(=O)NN(c1ccccc1)c1cccnc1 (stereo not drawn),440
3,C/C(CC1CCc2c(cccc2OCC(=O)O)C1)=N\OC(c1ccccc1)c1ccccn1 (stereo not drawn),570
4,O=C(O)COc1cccc2c1CCC(Cn1cc(C(c3ccccc3)c3ccccc3)cn1)C2 (stereo not drawn),130
5,O=C(O)COc1cccc2c1CCC(Cn1cc(C(c3ccccc3)c3cccnc3)cn1)C2 (stereo not drawn),150
6,CCC/C(CC1CCc2c(cccc2OCC(=O)O)C1)=N\OC(c1ccccc1)c1cccnc1 (stereo not drawn),320
7,C/C(CC1CCc2c(cccc2OCC(=O)O)C1)=N\OC(c1ccccc1)c1ccncc1 (stereo not drawn),480
8,C/C(CC1CCc2c(cccc2OCC(=O)O)C1)=N\OC(c1ccccc1)c1cccnc1 (stereo not drawn),1400
9,O=C(O)COc1cccc2c1CCCC2CCO/N=C(\c1ccccc1)c1cccnc1 (stereo not drawn),240
10,CC#CCC(C)[C@H](O)/C=C/[C@@H]1[C@H]2C/C(=C/CCCC(=O)O)C[C@H]2C[C@H]1O (stereo partly drawn) [ILOPROST],1.4

# Species: Homo sapiens
# Assay: PGI-2 agonistic activity by measuring inhibition of 4 uM ADP-induced human platelet aggregation; Inactive
# Assay type: functional
row,SMILES,IC50
1,C/C(=C\c1ccc(Cc2cccnc2)cc1)C(=O)[O-].[Na+] [ONO-1581],Not Active
2,O=C(O)/C=C/c1ccc(Cn2ccnc2)cc1 [OZAGREL],Not Active

# Target: T1, Thromboxane-A synthase
# Assay: Inhibitory activity against Thromboxane A2 synthase in human platelet microsome; inactive
row,SMILES,IC50
1,CC#CCC(C)[C@H](O)/C=C/[C@@H]1[C@H]2C/C(=C/CCCC(=O)O)C[C@H]2C[C@H]1O (stereo partly drawn) [ILOPROST],Not Active

# Target: T1, Thromboxane-A synthase
# Assay: Inhibitory activity against Thromboxane A2 synthase in human platelet microsome
row,SMILES,IC50
1,O=C(O)COc1cccc2c1CCCC2CCC(=O)NN(c1ccccc1)c1ccccc1 (stereo not drawn),Not Active
2,O=C(O)COc1cccc2c1CCC(Cn1cc(C(c3ccccc3)c3ccccc3)cn1)C2 (stereo not drawn),Not Active
3,CCC/C(CC1CCc2c(cccc2OCC(=O)O)C1)=N\OC(c1ccccc1)c1ccccc1 (stereo not drawn) [AP-227],Not Active
